Assay results from the NIST ThermoML archive (doi:10.1021/je060210c).

Experiments:
[1] = excess molar enthalpy (molar enthalpy of mixing); xn = mol fraction of the nth substance listed; conditions: 101 kPa, Liquid
[2] = xn = mol fraction of the nth substance listed; conditions: 101 kPa, Liquid; for speed of sound: Sing-around technique in a fixed-path interferometer

C=C1CCC2CC1C2(C)C (stereo not drawn) [β-pinene] + CCCC(C)O
Conditions	excess molar enthalpy [kcal/mol]	mass density [kg/m3]	speed of sound [m/s]
[1], 283.15 K, x1 = 0.049	0.0299	–	–
[1], 283.15 K, x1 = 0.1	0.0631	–	–
[1], 283.15 K, x1 = 0.193	0.117	–	–
[1], 283.15 K, x1 = 0.294	0.163	–	–
[1], 283.15 K, x1 = 0.395	0.194	–	–
[1], 283.15 K, x1 = 0.495	0.21	–	–
[1], 283.15 K, x1 = 0.591	0.21	–	–
[1], 283.15 K, x1 = 0.695	0.194	–	–
[1], 283.15 K, x1 = 0.794	0.168	–	–
[1], 283.15 K, x1 = 0.9	0.123	–	–
[1], 283.15 K, x1 = 0.942	0.092	–	–
[1], 283.15 K, x1 = 0.971	0.066	–	–
[1], 283.15 K, x1 = 0.985	0.0356	–	–
[1], 298.15 K, x1 = 0.049	0.0382	–	–
[1], 298.15 K, x1 = 0.1	0.0803	–	–
[1], 298.15 K, x1 = 0.193	0.149	–	–
[1], 298.15 K, x1 = 0.294	0.206	–	–
[1], 298.15 K, x1 = 0.395	0.243	–	–
[1], 298.15 K, x1 = 0.495	0.263	–	–
[1], 298.15 K, x1 = 0.591	0.263	–	–
[1], 298.15 K, x1 = 0.695	0.253	–	–
[1], 298.15 K, x1 = 0.794	0.224	–	–
[1], 298.15 K, x1 = 0.9	0.172	–	–
[1], 298.15 K, x1 = 0.942	0.124	–	–
[1], 298.15 K, x1 = 0.971	0.0875	–	–
[1], 298.15 K, x1 = 0.985	0.0452	–	–
[1], 313.15 K, x1 = 0.049	0.05	–	–
[1], 313.15 K, x1 = 0.1	0.0987	–	–
[1], 313.15 K, x1 = 0.193	0.179	–	–
[1], 313.15 K, x1 = 0.294	0.245	–	–
[1], 313.15 K, x1 = 0.395	0.289	–	–
[1], 313.15 K, x1 = 0.495	0.315	–	–
[1], 313.15 K, x1 = 0.591	0.321	–	–
[1], 313.15 K, x1 = 0.695	0.313	–	–
[1], 313.15 K, x1 = 0.794	0.286	–	–
[1], 313.15 K, x1 = 0.9	0.21	–	–
[1], 313.15 K, x1 = 0.942	0.153	–	–
[1], 313.15 K, x1 = 0.971	0.0968	–	–
[1], 313.15 K, x1 = 0.985	0.0442	–	–
[2], 283.15 K, x1 = 0.104	–	824.99	1291.4
[2], 283.15 K, x1 = 0.2047	–	832.2	1295.3
[2], 283.15 K, x1 = 0.3071	–	839.03	1299.3
[2], 283.15 K, x1 = 0.3997	–	844.95	1303.5
[2], 283.15 K, x1 = 0.4964	–	850.86	1308.8
[2], 283.15 K, x1 = 0.6058	–	857.28	1316.2
[2], 283.15 K, x1 = 0.6929	–	862.26	1323.1
[2], 283.15 K, x1 = 0.8016	–	868.23	1332.7
[2], 283.15 K, x1 = 0.904	–	873.67	1342.4
[2], 283.15 K, x1 = 0.9454	–	875.83	1346.8
[2], 298.15 K, x1 = 0.1056	–	812.89	1235
[2], 298.15 K, x1 = 0.2051	–	819.88	1238.6
[2], 298.15 K, x1 = 0.3052	–	826.49	1241.5
[2], 298.15 K, x1 = 0.4038	–	832.72	1245.8
[2], 298.15 K, x1 = 0.5068	–	838.99	1251.5
[2], 298.15 K, x1 = 0.601	–	844.56	1257.8
[2], 298.15 K, x1 = 0.695	–	849.94	1265
[2], 298.15 K, x1 = 0.8014	–	855.84	1273.7
[2], 298.15 K, x1 = 0.9001	–	861.15	1282.7
[2], 298.15 K, x1 = 0.9499	–	863.9	1288.2
[2], 313.15 K, x1 = 0.1069	–	800.02	1170.1
[2], 313.15 K, x1 = 0.1981	–	806.39	1173.2
[2], 313.15 K, x1 = 0.3039	–	813.43	1177.7
[2], 313.15 K, x1 = 0.4034	–	819.78	1182.2
[2], 313.15 K, x1 = 0.5067	–	826.14	1188.2
[2], 313.15 K, x1 = 0.6023	–	831.84	1195.1
[2], 313.15 K, x1 = 0.7005	–	837.55	1203.4
[2], 313.15 K, x1 = 0.7975	–	843.07	1212.8
[2], 313.15 K, x1 = 0.8956	–	–	1223.2
[2], 313.15 K, x1 = 0.8957	–	848.53	–
[2], 313.15 K, x1 = 0.9497	–	851.6	1229.6

C=C1CCC2CC1C2(C)C (stereo not drawn) [β-pinene] + CCCCCO
Conditions	excess molar enthalpy [kcal/mol]	mass density [kg/m3]	speed of sound [m/s]
[1], 283.15 K, x1 = 0.049	0.00669	–	–
[1], 283.15 K, x1 = 0.096	0.0155	–	–
[1], 283.15 K, x1 = 0.192	0.0325	–	–
[1], 283.15 K, x1 = 0.286	0.05	–	–
[1], 283.15 K, x1 = 0.388	0.0645	–	–
[1], 283.15 K, x1 = 0.488	0.0753	–	–
[1], 283.15 K, x1 = 0.588	0.081	–	–
[1], 283.15 K, x1 = 0.69	0.0825	–	–
[1], 283.15 K, x1 = 0.791	0.077	–	–
[1], 283.15 K, x1 = 0.892	0.0605	–	–
[1], 283.15 K, x1 = 0.95	0.0478	–	–
[1], 283.15 K, x1 = 0.97	0.0359	–	–
[1], 283.15 K, x1 = 0.99	0.0227	–	–
[1], 298.15 K, x1 = 0.049	0.0177	–	–
[1], 298.15 K, x1 = 0.096	0.037	–	–
[1], 298.15 K, x1 = 0.192	0.075	–	–
[1], 298.15 K, x1 = 0.286	0.11	–	–
[1], 298.15 K, x1 = 0.388	0.14	–	–
[1], 298.15 K, x1 = 0.488	0.16	–	–
[1], 298.15 K, x1 = 0.588	0.172	–	–
[1], 298.15 K, x1 = 0.69	0.174	–	–
[1], 298.15 K, x1 = 0.791	0.161	–	–
[1], 298.15 K, x1 = 0.892	0.126	–	–
[1], 298.15 K, x1 = 0.95	0.092	–	–
[1], 298.15 K, x1 = 0.97	0.0731	–	–
[1], 298.15 K, x1 = 0.99	0.0588	–	–
[1], 313.15 K, x1 = 0.049	0.0256	–	–
[1], 313.15 K, x1 = 0.096	0.0535	–	–
[1], 313.15 K, x1 = 0.192	0.106	–	–
[1], 313.15 K, x1 = 0.286	0.155	–	–
[1], 313.15 K, x1 = 0.388	0.194	–	–
[1], 313.15 K, x1 = 0.488	0.221	–	–
[1], 313.15 K, x1 = 0.588	0.236	–	–
[1], 313.15 K, x1 = 0.69	0.238	–	–
[1], 313.15 K, x1 = 0.791	0.222	–	–
[1], 313.15 K, x1 = 0.892	0.182	–	–
[1], 313.15 K, x1 = 0.95	0.128	–	–
[1], 313.15 K, x1 = 0.97	0.0954	–	–
[1], 313.15 K, x1 = 0.99	0.0327	–	–
[2], 283.15 K, x1 = 0.1075	–	830.13	1327.7
[2], 283.15 K, x1 = 0.2016	–	836.79	1328.9
[2], 283.15 K, x1 = 0.3016	–	843.32	1330.6
[2], 283.15 K, x1 = 0.4028	–	849.41	1331.6
[2], 283.15 K, x1 = 0.5026	–	854.98	1333.2
[2], 283.15 K, x1 = 0.6034	–	860.24	1335.1
[2], 283.15 K, x1 = 0.7014	–	865.12	1337.8
[2], 283.15 K, x1 = 0.8036	–	869.97	1341.4
[2], 283.15 K, x1 = 0.9009	–	874.43	1346.2
[2], 283.15 K, x1 = 0.9481	–	876.59	1349.3
[2], 298.15 K, x1 = 0.1004	–	–	1275
[2], 298.15 K, x1 = 0.1057	–	819.15	–
[2], 298.15 K, x1 = 0.2012	–	825.47	–
[2], 298.15 K, x1 = 0.2024	–	–	1275.5
[2], 298.15 K, x1 = 0.3032	–	831.91	–
[2], 298.15 K, x1 = 0.3081	–	–	1275.8
[2], 298.15 K, x1 = 0.3975	–	–	1275.9
[2], 298.15 K, x1 = 0.4023	–	837.67	–
[2], 298.15 K, x1 = 0.4982	–	–	1276.4
[2], 298.15 K, x1 = 0.4984	–	842.91	–
[2], 298.15 K, x1 = 0.6021	–	848.24	1277.9
[2], 298.15 K, x1 = 0.6945	–	852.74	–
[2], 298.15 K, x1 = 0.696	–	–	1279.6
[2], 298.15 K, x1 = 0.7994	–	857.65	–
[2], 298.15 K, x1 = 0.8066	–	–	1283
[2], 298.15 K, x1 = 0.8952	–	–	1286.9
[2], 298.15 K, x1 = 0.8997	–	862.25	–
[2], 298.15 K, x1 = 0.9465	–	864.37	–
[2], 298.15 K, x1 = 0.9528	–	–	1291
[2], 313.15 K, x1 = 0.1007	–	807.27	–
[2], 313.15 K, x1 = 0.1023	–	–	1223.7
[2], 313.15 K, x1 = 0.2007	–	–	1221.7
[2], 313.15 K, x1 = 0.2048	–	814.01	–
[2], 313.15 K, x1 = 0.3027	–	819.95	–
[2], 313.15 K, x1 = 0.3049	–	–	1220.9
[2], 313.15 K, x1 = 0.4019	–	825.6	1220.4
[2], 313.15 K, x1 = 0.5024	–	830.92	1220.6
[2], 313.15 K, x1 = 0.5976	–	835.75	1221.2
[2], 313.15 K, x1 = 0.6977	–	840.54	1222.1
[2], 313.15 K, x1 = 0.7991	–	845.26	1224.3
[2], 313.15 K, x1 = 0.9066	–	850.18	1228.6
[2], 313.15 K, x1 = 0.9468	–	852.1	1231
